According to publication PMC10671360, “In Silico and In Vitro Study towards the Rational Design of 4,4′-Disarylbisthiazoles as a Selective α-Synucleinopathy Biomarker” (International Journal of Molecular Sciences, 2023):

Assays:
Aβ1−42 fibrils [1] = target: T1, Aβ1−42 fibrils (Homo sapiens, UniProt P05067); experiment: Competition binding assay against [^3H]DCVJ, Aβ1−42 fibrils; details: [^3H]DCVJ was used (10 nM); Aβ1−42 aggregates 125 nM; read-out: Ki Aβ
T1 construct: 1 mg of β-amyloid1–42 peptide (Abcam, Cambridge, UK); purchased Abcam
Description: (§1) After the dissolution of 1 mg of β-amyloid1–42 peptide (Abcam, Cambridge, UK) in 50 μL of DMSO, 925 μL of Milli-Q® water was added to it, and the mixture was stirred. Finally, 25 μL of 1M Tris HCl, pH 7.4 was added to bring the final peptide concentration to 1 mg/mL. The mixture was then left to incubate at 37 °C for 30 h with shaking at 900 rpm. To separate the non-aggregated monomers from the formed fibrils, the reaction mixture was centrifuged at 12,000× g for 5 min, and the resulting pellet was washed three times with 500 μL of 20 mM Tris-HCl, pH 7.4. The supernatants from the three centrifugation steps were combined, and the concentration of the monomer in the resulting supernatant was determined in a BCA assay (Thermo Fisher Scientific, Waltham, MA, USA) (with a BSA standard curve). Determination of the concentration of fibrils formed was carried out by subtracting the amount of β-amyloid1−42 peptide monomer in the supernatant from the initial amount used for fibrillation.
(§2) The pellets of the fibrils obtained above (Section 4.2.1) were resuspended in 20 mM of Tris-HCl, pH 7.4 and diluted as needed for the binding assays.
(§3) A fixed concentration of [^3H]DCVJ (10 nM) and α-synuclein aggregates (125 nM), prepared as described above (Section 4.2.3), was used with different final concentrations of the DABTAs from 0.01 to 100 nM (see SI Figure S1). The experiment was carried out in quintuplicate for each concentration. The mixture was incubated for 2 h in a final volume of 200 μL per well after dilution with 20 mM of Tris-HCl, pH 7.4. The incubated mixtures were filtered through a Perkin Elmer GF/B glass filter via a TOMTEC cell harvester and immediately washed thrice with 1 mL of deionized water. The filters containing the bound ligands were dried and afterwards mixed with 3 mL of BetaPlate Scint solution (Perkin Elmer Life Sciences, Waltham, MA, USA) and left there for 2 h before counting in a Wallac 1450 MicroBeta TriLux Liquid Scintillation Counter (PerkinElmer Life Sciences, Waltham, MA, USA). For the determination of the inhibition constants, data were analyzed using GraphPad Prism software (version 7.0) to obtain IC50 values by fitting the data to the equation Y = bottom + (top − bottom)/(1 + 10(x − log IC50)). Ki values were calculated from IC50 values using the equation Ki = IC50/(1 + [radioligand]/Kd). […] Further protocol was carried out as for [^3H]DCVJ (see SI Figure S3).
Fixed concentrations (125 nM) of Aβ1−42, tau aggregates, and [^3H]DCVJ (10 nM and 20 nM for the Aβ1−42 and tau competition experiments respectively) were used with different concentrations of cold versions of the tracers from 1 to 1000 nM (See SI Figure S2). The experiment was performed in quadruplicate for each concentration. […]

tau fibrils = tau fibrils (Homo sapiens, UniProt P10636); experiment: Competition binding assay against [^3H]DCVJ, tau fibrils; details: [^3H]DCVJ was used (20 nM); tau aggregates 125 nM
Description: as §3, with “Recombinant tau monomer (R&D systems, Minneapolis, MN, USA) was dissolved in 20 mM of Tris HCl, pH 8.0, 100 mM of NaCl, 25 μM of low-MW heparin, and 0.5 mM of dithiothreitol to a final concentration of 300 µg/mL. The mixture was incubated with shaking at 900 rpm at 37 °C for 48 h. To separate the non-aggregated monomers from the formed fibrils, the reaction mixture was centrifuged at 12,000× g for 5 min, and the resulting pellet was washed three times with 500 μL of 20 mM Tris-HCl, pH 7.4. The supernatants from the three centrifugation steps were combined, and the concentration of the monomer in the resulting supernatant was determined in a BCA assay(Thermo Fisher Scientific, Waltham, MA, USA) (with a BSA standard curve). Determination of the concentration of fibrils formed was carried out by subtracting the amount of tau peptide monomer in the supernatant from the initial amount used for fibrillation. The pellets of the fibrils obtained above (Section 4.2.1) were resuspended in 20 mM of Tris-HCl, pH 7.4 and diluted as needed for the binding assays. A fixed” for “A fixed”, “Figure S3). Fixed concentrations (125 nM) of Aβ1−42, tau aggregates, and [^3H]DCVJ (10 nM and 20 nM for the Aβ1−42 and tau competition experiments respectively) were used with different concentrations of cold versions of the tracers from 1 to 1000 nM (See SI Figure S2). The experiment was performed in quadruplicate for each concentration. Further procedures followed the same already described in Section 4.2.3.1.” for “Figure S3).”

Aβ1−42 fibrils [2] = target: T1, Aβ1−42 fibrils; experiment: Competition binding assay against [^3H]PiB, Aβ1−42 fibrils; details: read-out: Ki Aβ
Description: as §1, §2, §3
Further procedures followed the same already described in Section 4.2.3.1 (See SI Figure S4).

[3] = Solubility in the incubation medium of the binding assays; type: physicochemical; details: incubation buffer of the binding assays

Sequence of tau fibrils (P10636 2-758): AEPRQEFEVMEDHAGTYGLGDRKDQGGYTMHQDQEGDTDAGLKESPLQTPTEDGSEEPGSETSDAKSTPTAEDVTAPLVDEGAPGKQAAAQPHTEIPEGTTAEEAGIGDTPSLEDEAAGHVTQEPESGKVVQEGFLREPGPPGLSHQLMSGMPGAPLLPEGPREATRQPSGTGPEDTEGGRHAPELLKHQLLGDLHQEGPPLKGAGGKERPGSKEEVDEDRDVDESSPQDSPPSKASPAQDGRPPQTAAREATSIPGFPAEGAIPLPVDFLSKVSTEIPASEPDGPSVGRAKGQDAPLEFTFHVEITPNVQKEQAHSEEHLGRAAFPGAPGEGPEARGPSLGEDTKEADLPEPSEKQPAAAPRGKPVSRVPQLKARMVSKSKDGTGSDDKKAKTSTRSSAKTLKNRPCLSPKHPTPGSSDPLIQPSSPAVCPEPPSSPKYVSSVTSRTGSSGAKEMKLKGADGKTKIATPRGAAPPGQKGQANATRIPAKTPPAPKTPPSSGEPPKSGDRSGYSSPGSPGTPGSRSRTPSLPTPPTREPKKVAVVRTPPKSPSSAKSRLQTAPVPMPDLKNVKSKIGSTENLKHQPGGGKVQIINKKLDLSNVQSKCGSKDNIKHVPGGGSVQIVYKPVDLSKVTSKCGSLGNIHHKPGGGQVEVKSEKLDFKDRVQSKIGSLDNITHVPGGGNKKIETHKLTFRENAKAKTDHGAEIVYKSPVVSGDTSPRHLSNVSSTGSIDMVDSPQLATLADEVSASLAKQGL
T1 sequence (P05067 672-713): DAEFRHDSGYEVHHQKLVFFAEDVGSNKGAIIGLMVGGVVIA

Ki (Aβ1−42 fibrils [1])	Ki (tau fibrils)	Ki (Aβ1−42 fibrils [2])	solubility in the incubation medium [3]	Compound
251 nM	465 nM	185 nM	–	FCCOc1cnc(-c2csc(-c3nc(-c4cnc5c(c4)OCO5)cs3)n2)nc1 [f4, 6-(4′-(5-(2-Fluoroethoxy)pyrimidin-2-yl)-[2,2′-bithiazol]-4-yl)-[1,3]dioxolo[4,5-b]pyridine]
198 nM	437 nM	96.7 nM	–	FCCOCCOc1cnc(-c2csc(-c3nc(-c4ccc5c(c4)OCO5)cs3)n2)nc1 [f6, 4-(Benzo[d][1,3]dioxol-5-yl)-4′-(5-(2-(2-fluoroethoxy)ethoxy)pyrimidin-2-yl)-2,2′-bithiazole]
134 nM	515 nM	155 nM	–	FCCOc1cnc(-c2csc(-c3nc(-c4ccc5c(c4)OCO5)cs3)n2)nc1 [f5, 4-(Benzo[d][1,3]dioxol-5-yl)-4′-(5-(2-fluoroethoxy)pyrimidin-2-yl)-2,2′-bithiazole]
407 nM	> 1000 nM	214 nM	decreased solubility	Fc1ncc(-c2csc(-c3nc(-c4cnc5c(c4)OCO5)cs3)n2)cn1 [d10]
